Assay results reported in patent publication US20020076693A1, “Novel cell surface receptor for HIV retroviruses, therapeutic and diagnostic uses” (priority 1997, published 2002).

Experiments:
[1] = system: HIV-1 AZT resistant, Saquinavir resistant, Nevirapine resistant; experiment: Entry of HIV-1 isolates resistant to antiviral drugs into HeLa cells (β-galactosidase); type: cell-based; conditions: heparin 5 mg/ml
Description: HIV entry and replication, results in the activation of the HIV LTR, leading to the expression of the lacZ gene. Therefore, at 24 and 48 hours post-infection, the β-galactosidase activity could be measured in cell extracts directly. Consequently, this latter technique could be used to monitor HIV entry into cells. The HIV dose used corresponded to the amount of virus containing 20-40 ng/ml of p24.
In these experiments, the background values of the β-galactosidase activity were assesed by the samples incubated with the a-CD4 mAb. Furthermore, the effect of heparin (5 mg/ml) was investigated.

MOLT4 cells = experiment: FACS binding of FITC-labeled TASP after protease treatment of cells; set-up: species or system human
Description: The cells were then washed twice with FACS buffer and fixed in 1% formaldehyde in FACS buffer. […] The fluorescence intensity was monitored by FACS analysis using Lysis II Software in FIGS. 3/4 and Tables 1/2, or Cell Quest™ Software (Beckton Dickinson and Apple Computer) in FIG. 5 +L.
Protease treatment of CEM and MOLT cells was essentially as described previously (Borrow et al., 1992) with slight modifications. Briefly, cells were washed in PBS and in RPMI-1640 medium containing 1 mM EDTA before treatment with trypsin (Sigma; 2.5 mg/ml at 20° C. for 5 min), proteinase K (Bohringer Mannhein GmbH, Germany; 0.2 mg/ml at 37° C. for 30 min), or pronase E (Sigma, 0.1 mg/ml at 37° C. for 45 min). The reactions were stopped by 10 fold dilutions in RPMI-1640 containing 10% fetal calf serum. Cells were then washed in PBS and in FACS buffer, and processed for FACS analysis.
The expression of CD4 and CD26 in control cells (not treated with different proteases) was considered as 100%. Consequently the % positive cells after protease treatment were estimated by comparison with the untreated cells.

Substance: 5[Kψ(CH2N)PR]-TASP
- effect on entry of drug-resistant HIV-1 isolates [1]: Inhibits Entry
- Cell-surface expression (% positive cells), TASP-Ligand (MOLT4 cells; after Pronase E treatment): 8%
- Cell-surface expression (% positive cells), TASP-Ligand (MOLT4 cells; after Proteinase K treatment): 15%
- Cell-surface expression (% positive cells), TASP-Ligand (MOLT4 cells; after Trypsin treatment): 92%
